# In US20080051431A1, “Methods and compositions using immunomodulatory compounds in combination therapy” (priority 2006, published 2008):
# Entries after “also recorded” stand apart in the source; their conditions may differ.
# Experiments:
# [1] = test system: Namalwa cells (human Burkitt Lymphoma); experiment: Namalwa cell proliferation (cell count by flow cytometry; BrDu incorporation); type: cell-based; conditions: 3 days; for effect of combination with VPA on cell proliferation arrest: FIGS. 3 and 5
# Experimental: (§1) Namalwa were cultured in RPMI-1640 media (Invitrogen, Carlsbad) supplemented with 10% fetal bovine serum, penicillin (100 u/ml) and streptomycin (100 μg/ml). CD34^+ cells were expanded in serum free conditions in Iscove's DMEM (Invitrogen, Carlsbad, Calif.) supplemented with 20% serum substitute BIT (StemCell Techologies, Vancouver, BC) in the presence of SCF (100 ng/ml), Flt3-L (100 ng/ml) and IL-3 (20 ng/ml) (Biosource International, Camarillo, Calif.). Namalwa cells and CD34+ cells were cultured for 3 and 6 days, respectively. DMSO 0.1%, Comp. 1 or Comp. 2, valproic acid (VPA) or trichostatin A (TSA) at the concentration indicated were added during the 3 or 6 days of culture. BM-CD34+ cells were cultured in Iscove's MDM with BIT 95000 (StemCell technologies) in the presence of growth factors. During the first 6 days CD34^+ cells were expanded with SCF (100 ng/ml), Flt3-L (100 ng/ml), and IL-3 (20 ng/ml) and then differentiated toward the erythroid lineage by culture with SCF (50 ng/ml) and EPO (2U or 4 U/ml) for 6 days. To study the effect of immunomodulatory compounds, CD34^+ progenitor cells were differentiated for a period of 6 days in the presence or absence of Comp. 1, Comp. 2 or hydroxyurea (HU).
# (§2) Namalwa and CD34^+ cells were plated at 4000 and 2000 cells per well, respectively into 96-well plate and treated with compound. After the time indicated, cells were counted and phenotypically analyzed by flow cytometry using the FACSarray. The percentage of apoptotic cells and CD34^+ cells were monitored using Propidium iodide staining (BD pharmingen, Chicago, Ill.) and the antibody anti-CD34 (PE-conjugated) (BD pharmingen), respectively, according to the manufacturer experimental procedure.
# Namalwa cells were plated at 10,000 cells per well in 96 well plates and treated with TSA and Comp. 1 at the concentration indicated for 3 days. The effects of TSA and Comp. 1 on cell proliferation were measured using BrDu incorporation kit (Roche, Germany).
# [2] = test system: CD34+ cells from sickle cell anemic patient (SCA); experiment: Fetal hemoglobin expression in CD34+ cells from sickle cell anemic patient differentiated towards erythrocytes; type: cell-based
# Experimental: Namalwa CSN.70 cells were purchased from DSMZ (Brauschweig, Germany). Bone marrow and cord blood CD34^+ cells were purchased Cambrex (Walkersville, Md.) and AllCells (Emeryville, Calif.), respectively. Bone marrow CD34+ cells from Sickle Cell Anemic (SCA) patient were provided by Christopher Morris (Loma Linda University Medical Center, CA).
# Namalwa were cultured in RPMI-1640 media (Invitrogen, Carlsbad) supplemented with 10% fetal bovine serum, penicillin (100 u/ml) and streptomycin (100 μg/ml). CD34^+ cells were expanded in serum free conditions in Iscove's DMEM (Invitrogen, Carlsbad, Calif.) supplemented with 20% serum substitute BIT (StemCell Techologies, Vancouver, BC) in the presence of SCF (100 ng/ml), Flt3-L (100 ng/ml) and IL-3 (20 ng/ml) (Biosource International, Camarillo, Calif.). Namalwa cells and CD34+ cells were cultured for 3 and 6 days, respectively. DMSO 0.1%, Comp. 1 or Comp. 2, valproic acid (VPA) or trichostatin A (TSA) at the concentration indicated were added during the 3 or 6 days of culture. […]
# (§3) After 6 days of culture, cells were washed with phosphate-buffered saline (PBS), fixed with 2% paraformaldehyde, permeabilized with cytopermeafix (BD-pharmingen), stained with HbF-PE (BD Pharmingen, San Diego, Calif.) and analyzed by flow cytometry (FACSAria, BD pharmingen).
# [3] = test system: cord blood CD34+ cells; experiment: Expansion of cord blood-derived CD34+ cells (cell count and anti-CD34 flow cytometry); type: cell-based; conditions: for effects of combination with TSA on CD34+ expansion, CD34+ cell number / effects of combination with TSA on CD34+ expansion, percent of CD34+ cells / effects of combination with VPA on CD34+ expansion, CD34+ cell number / effects of combination with VPA on CD34+ expansion, percent of CD34+ cells / number of CD34+ cells / percent of CD34+ cells: after 6 days of culture; for effects of combination with TSA on CD34+ expansion, CD34+ cell number: FIGS. 7 and 9; for effects of combination with TSA on CD34+ expansion, percent of CD34+ cells: FIGS. 8 and 10; for effects of combination with VPA on CD34+ expansion, CD34+ cell number: FIGS. 11 and 13; for effects of combination with VPA on CD34+ expansion, percent of CD34+ cells: FIGS. 12 and 14; for number of CD34+ cells / percent of CD34+ cells: compound alone, in a dose dependent manner; for kind of combination effect with VPA on CD34+ expansion (number and percent): tables in FIGS. 11-14
# Experimental: as §1, §2
# [4] = test system: CD34+ hematopoietic stem cells from a healthy donor; experiment: Fetal hemoglobin expression in CD34+ cells from a healthy donor differentiated towards erythrocytes; type: cell-based; conditions: for percentage of HbF expressing cells: compound alone, healthy donor, after 6 days of culture, in a dose dependent manner; for effect of combination with HU on HbF expression: healthy (normal) donor, HU at 10 μM added to the growth cocktail, 6 days, FIG. 15
# Experimental: as §1, §3
# [5] = test system: Namalwa cells (human Burkitt Lymphoma); experiment: Namalwa cell apoptosis (Propidium iodide staining, flow cytometry); type: cell-based; conditions: 3 days; for effect of combination with VPA on inducing apoptosis: FIGS. 4 and 6
# Experimental: as §1, §2
# [6] = cited from earlier work; for relative stability among polymorphs: Form A: among anhydrous polymorphs, Form E: in aqueous solvent systems; for hygroscopicity: polymorphic form of 3-(4-amino-1-oxo-1,3 dihydro-isoindol-2-yl)-piperidene-2,6-dione; for conversion upon heating (desolvation experiments): Form E: about 125° C. for about five minutes, Form B: 175° C. for about five minutes; for interconversion in solvent systems or at higher relative humidity: interconversion studies
smiles,measurement,setting,value
"Nc1cccc2c1C(=O)N(C1CCC(=O)NC1=O)C2=O (stereo not drawn) [Compound 1, 4-(amino)-2-(2,6-dioxo(3-piperidyl))-isoindoline-1,3-dione]",effect of combination with VPA on cell proliferation arrest,[1],synergistic and additive; also recorded: additive and synergistic
same,effect of combination with TSA on cell proliferation arrest,"[1]; TSA at 10 nM, FIG. 1",synergistic and additive
same,effect of combination with HU on HbF expression,"[2]; HU at 10 μM added to the growth cocktail, 6 days, FIG. 16",significantly improved the effect of Compound 1 on HbF expression in a synergistic manner
same,percentage of HbF expressing cells,"[2]; compound alone, after 6 days of culture, in a dose dependent manner",increased
same,effect of the addition of TSA on the compound's effect on CD34+ expansion,"[3]; TSA at 10 nM added to the growth cocktail, 6 days",significantly improved
same,effect of the addition of VPA on the compound's effect on CD34+ expansion,"[3]; VPA at 0.1, 0.3 and 1 mM added to the growth cocktail, 6 days",significantly improved
same,"effects of combination with TSA on CD34+ expansion, CD34+ cell number",[3],additive and synergistic
same,"effects of combination with TSA on CD34+ expansion, percent of CD34+ cells",[3],additive and synergistic
same,"effects of combination with VPA on CD34+ expansion, CD34+ cell number",[3],additive and synergistic
same,"effects of combination with VPA on CD34+ expansion, percent of CD34+ cells",[3],additive and synergistic
same,number of CD34+ cells,[3],increased
same,percent of CD34+ cells,[3],increased
same,"kind of combination effect on CD34+ expansion (number and percent), partner printed as VPA","[3]; tables in FIGS. 7-10, which belong to the TSA experiments, 6 days","additive to Compound 1, and in some conditions, a synergistic effect was observed"
same,kind of combination effect with VPA on CD34+ expansion (number and percent),[3]; 6 days,"additive to Compound 1, and in some conditions, a synergistic effect was observed"
same,percentage of HbF expressing cells,[4],increased
same,effect of combination with HU on HbF expression,[4],significantly improved the effect of Compound 1 and Compound 2 on HbF expression in a synergistic manner
same,effect of combination with VPA on inducing apoptosis,[5],synergistic and additive; also recorded: additive and synergistic
same,effect of combination with TSA on inducing apoptosis,"[5]; TSA at 10 nM, FIG. 2",synergistic and additive
"Nc1cccc2c1CN(C1CCC(=O)NC1=O)C2=O (stereo not drawn) [Compound 2, 3-(4-amino-1-oxo-1,3-dihydro-isoindol-2-yl)-piperidine-2,6-dione]",effect of combination with VPA on cell proliferation arrest,[1],synergistic and additive; also recorded: additive and synergistic
same,effect of the addition of TSA on the compound's effect on CD34+ expansion,"[3]; TSA at 1 and 10 nM added to the growth cocktail, 6 days",significantly improved
same,effect of the addition of VPA on the compound's effect on CD34+ expansion,"[3]; VPA at 0.1 and 0.3 mM added to the growth cocktail, 6 days",significantly improved
same,"effects of combination with TSA on CD34+ expansion, CD34+ cell number",[3],additive and synergistic
same,"effects of combination with TSA on CD34+ expansion, percent of CD34+ cells",[3],additive and synergistic
same,"effects of combination with VPA on CD34+ expansion, CD34+ cell number",[3],additive and synergistic
same,"effects of combination with VPA on CD34+ expansion, percent of CD34+ cells",[3],additive and synergistic
same,number of CD34+ cells,[3],increased
same,percent of CD34+ cells,[3],increased
same,kind of combination effect with VPA on CD34+ expansion (number and percent),[3]; 6 days,"additive to Compound 2, and in some conditions, a synergistic effect was observed"
same,percentage of HbF expressing cells,[4],increased
same,effect of combination with HU on HbF expression,[4],significantly improved the effect of Compound 1 and Compound 2 on HbF expression in a synergistic manner
same,effect of combination with VPA on inducing apoptosis,[5],synergistic and additive; also recorded: additive and synergistic
"Nc1cccc2c1CN(C1CCC(=O)NC1=O)C2=O (stereo not drawn) [Form A, 3-(4-amino-1-oxo-1,3 dihydro-isoindol-2-yl)-piperidene-2,6-dione]",relative stability among polymorphs,[6],most thermodynamically stable anhydrous polymorph
same,hygroscopicity,[6],weakly or not hygroscopic
"Nc1cccc2c1CN(C1CCC(=O)NC1=O)C2=O (stereo not drawn) [Form B, 3-(4-amino-1-oxo-1,3 dihydro-isoindol-2-yl)-piperidene-2,6-dione]",conversion upon heating (desolvation experiments),[6],can convert to Form F
same,interconversion in solvent systems or at higher relative humidity,[6],"converts to Form E in aqueous solvent systems, and converts to other forms in acetone and other anhydrous systems"
"Nc1cccc2c1CN(C1CCC(=O)NC1=O)C2=O (stereo not drawn) [Form C, 3-(4-amino-1-oxo-1,3 dihydro-isoindol-2-yl)-piperidene-2,6-dione]",interconversion in solvent systems or at higher relative humidity,[6],can convert to Form B at higher relative humidities
same,hygroscopicity,[6],not hygroscopic below about 85% RH
"Nc1cccc2c1CN(C1CCC(=O)NC1=O)C2=O (stereo not drawn) [Form D, 3-(4-amino-1-oxo-1,3 dihydro-isoindol-2-yl)-piperidene-2,6-dione]",interconversion in solvent systems or at higher relative humidity,[6],convert to Form B when stressed at higher relative humidities
same,hygroscopicity,[6],either weakly or not hygroscopic
"Nc1cccc2c1CN(C1CCC(=O)NC1=O)C2=O (stereo not drawn) [Form E, 3-(4-amino-1-oxo-1,3 dihydro-isoindol-2-yl)-piperidene-2,6-dione]",relative stability among polymorphs,[6],most stable form
same,conversion upon heating (desolvation experiments),[6],can convert to Form B
same,interconversion in solvent systems or at higher relative humidity,[6],can convert to Form C in an acetone solvent system and to Form G in a THF solvent system
